# According to PubChem BioAssay (NCI):
#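 Growth conditions: 96-well plates. Treatment: test compound, 48 hours, 5 concentrations. Analysis: linear interpolation between bracketing concentrations; unreached endpoints set to highest concentration. The concentration for 50% growth inhibition is given as GI50. TGI marks complete inhibition of growth.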
# Key:
# Experiment in all cases: inhibition of tumour cell growth, NCI panel, 48 h
# [1] = system: A498 renal
# [2] = system: ACHN renal
# [3] = system: BT-549 breast
# [4] = system: CCRF-CEM leukemia
# [5] = system: EKVX NSCLC
# [6] = system: HCC-2998 colon
# [7] = system: HCT-15 colon
# [8] = system: HL-60(TB) leukemia
# [9] = system: HOP-62 NSCLC
# [10] = system: HOP-92 NSCLC
# [11] = system: HS 578T breast
# [12] = system: HT29 colon
# [13] = system: IGROV1 ovarian
# [14] = system: K-562 leukemia
# [15] = system: KM12 colon
# [16] = system: LOX IMVI melanoma
# [17] = system: M14 melanoma
# [18] = system: MALME-3M melanoma
# [19] = system: MDA-MB-435
# [20] = system: MOLT-4 leukemia
# [21] = system: NCI-H226 lung
# [22] = system: NCI-H23 lung
# [23] = system: NCI-H460 lung
# [24] = system: NCI-H522 lung
# [25] = system: NCI/ADR-RES ovarian
# [26] = system: OVCAR-3 ovarian
# [27] = system: OVCAR-4 ovarian
# [28] = system: OVCAR-8 ovarian
# [29] = system: RPMI-8226 leukemia
# [30] = system: RXF 393 renal
# [31] = system: SF-268 CNS
# [32] = system: SF-295 CNS
# [33] = system: SF-539 CNS
# [34] = system: SK-MEL-2 melanoma
# [35] = system: SK-MEL-5 melanoma
# [36] = system: SK-OV-3 ovarian
# [37] = system: SN12C renal
# [38] = system: SNB-19 CNS
# [39] = system: SNB-75 CNS
# [40] = system: SR leukemia
# [41] = system: SW-620 colon
# [42] = system: T-47D breast
# [43] = system: TK-10 renal
# [44] = system: UACC-257 melanoma
# [45] = system: UACC-62 melanoma
# [46] = system: UO-31 renal
# [47] = system: CAKI-1 renal
# [48] = system: DU-145 prostate
# [49] = system: OVCAR-5 ovarian
# [50] = system: SK-MEL-28 melanoma
# [51] = system: 786-0 renal
# [52] = system: A549 NSCLC
# [53] = system: COLO 205 colon
# [54] = system: HCT-116 colon
# [55] = system: MCF7 breast
# [56] = system: MDA-MB-231 breast
# [57] = system: PC-3 prostate
# [58] = system: U251 CNS
smiles,measurement,setting,value
COC(=O)C1CCc2sc3ncnc(Nc4cn[nH]c4C(=O)Nc4ccc(CN5CCN(C)CC5)cc4)c3c21 (stereo unspecified),GI50,[1],0.218 µM
same,TGI,[1],1.8 µM
same,GI50,[2],0.232 µM
same,TGI,[2],10.1 µM
same,GI50,[3],0.899 µM
same,TGI,[3],6.02 µM
same,GI50,[4],0.29 µM
same,TGI,[4],2.98 µM
same,GI50,[5],0.838 µM
same,TGI,[5],14 µM
same,GI50,[6],1.82 µM
same,TGI,[6],31.5 µM
same,GI50,[7],0.423 µM
same,TGI,[7],> 100 µM
same,GI50,[8],1.68 µM
same,TGI,[8],3.87 µM
same,GI50,[9],0.453 µM
same,TGI,[9],19.5 µM
same,GI50,[10],1.14 µM
same,TGI,[10],5.88 µM
same,GI50,[11],0.54 µM
same,TGI,[11],12.7 µM
same,GI50,[12],0.619 µM
same,TGI,[12],2.91 µM
same,GI50,[13],0.447 µM
same,TGI,[13],> 100 µM
same,GI50,[14],0.254 µM
same,TGI,[14],4.15 µM
same,GI50,[15],0.207 µM
same,TGI,[15],2.63 µM
same,GI50,[16],0.405 µM
same,TGI,[16],1.79 µM
same,GI50,[17],0.708 µM
same,TGI,[17],2.14 µM
same,GI50,[18],1.98 µM
same,TGI,[18],3.78 µM
same,GI50,[19],1.06 µM
same,TGI,[19],3.38 µM
same,GI50,[20],0.324 µM
same,TGI,[20],0.991 µM
same,GI50,[21],0.588 µM
same,TGI,[21],> 100 µM
same,GI50,[22],0.506 µM
same,TGI,[22],2.67 µM
same,GI50,[23],0.331 µM
same,TGI,[23],1.49 µM
same,GI50,[24],0.304 µM
same,TGI,[24],1.63 µM
same,GI50,[25],3.27 µM
same,TGI,[25],> 100 µM
same,GI50,[26],0.334 µM
same,TGI,[26],2.04 µM
same,GI50,[27],0.906 µM
same,TGI,[27],> 100 µM
same,GI50,[28],0.711 µM
same,TGI,[28],75.1 µM
same,GI50,[29],1.41 µM
same,TGI,[29],4.21 µM
same,GI50,[30],0.244 µM
same,TGI,[30],0.891 µM
same,GI50,[31],0.666 µM
same,TGI,[31],2.63 µM
same,GI50,[32],0.659 µM
same,TGI,[32],17.1 µM
same,GI50,[33],0.371 µM
same,TGI,[33],1.49 µM
same,GI50,[34],0.692 µM
same,TGI,[34],3.48 µM
same,GI50,[35],0.58 µM
same,TGI,[35],2.56 µM
same,GI50,[36],0.132 µM
same,TGI,[36],> 100 µM
same,GI50,[37],0.345 µM
same,TGI,[37],> 100 µM
same,GI50,[38],0.712 µM
same,TGI,[38],> 100 µM
same,GI50,[39],0.0684 µM
same,TGI,[39],2.87 µM
same,GI50,[40],0.285 µM
same,TGI,[40],0.815 µM
same,GI50,[41],0.354 µM
same,TGI,[41],1.58 µM
same,GI50,[42],0.957 µM
same,TGI,[42],11.6 µM
same,GI50,[43],2.31 µM
same,TGI,[43],17.8 µM
same,GI50,[44],1.19 µM
same,TGI,[44],2.8 µM
same,GI50,[45],1.36 µM
same,TGI,[45],6.59 µM
same,GI50,[46],0.455 µM
same,TGI,[46],9.51 µM
CCCCCCCCCCCCCCCCCC1=NCCN1C(=O)OCCO,GI50,[1],9.29 µM
same,TGI,[1],56.7 µM
same,GI50,[3],3.19 µM
same,TGI,[3],18.3 µM
same,GI50,[47],1.75 µM
same,TGI,[47],3.83 µM
same,GI50,[48],1.84 µM
same,TGI,[48],3.37 µM
same,GI50,[5],1.75 µM
same,TGI,[5],4.24 µM
same,GI50,[11],4.08 µM
same,TGI,[11],> 100 µM
same,GI50,[18],12.9 µM
same,TGI,[18],42.9 µM
same,GI50,[21],6.24 µM
same,TGI,[21],45.2 µM
same,GI50,[22],5.64 µM
same,TGI,[22],> 100 µM
same,GI50,[49],3.35 µM
same,TGI,[49],26.4 µM
same,GI50,[50],5.92 µM
same,TGI,[50],24.5 µM
same,GI50,[35],2.93 µM
same,TGI,[35],10.3 µM
same,GI50,[36],2.5 µM
same,TGI,[36],7.04 µM
same,GI50,[38],3.39 µM
same,TGI,[38],12.9 µM
same,GI50,[42],2.89 µM
same,TGI,[42],9.48 µM
same,GI50,[44],2.28 µM
same,TGI,[44],5.68 µM
same,GI50,[45],1.87 µM
same,TGI,[45],3.46 µM
CN(C)CCCNC(=O)c1ccc2c(c1)oc1cc3ccccc3c(=O)n12,GI50,[51],> 50 µM
same,TGI,[51],> 50 µM
same,GI50,[52],5.98 µM
same,TGI,[52],16 µM
same,GI50,[2],8.33 µM
same,TGI,[2],16.1 µM
same,GI50,[3],12.7 µM
same,TGI,[3],26.5 µM
same,GI50,[47],11 µM
same,TGI,[47],28.6 µM
same,GI50,[53],14.6 µM
same,TGI,[53],32.5 µM
same,GI50,[5],17.6 µM
same,TGI,[5],45.7 µM
same,GI50,[54],19.3 µM
same,TGI,[54],> 50 µM
same,GI50,[7],12.3 µM
same,TGI,[7],> 50 µM
same,GI50,[8],11 µM
same,TGI,[8],30.8 µM
same,GI50,[9],> 50 µM
same,TGI,[9],> 50 µM
same,GI50,[10],> 50 µM
same,TGI,[10],> 50 µM
same,GI50,[12],12.7 µM
same,TGI,[12],27.7 µM
same,GI50,[13],9.94 µM
same,TGI,[13],43.5 µM
same,GI50,[14],27.2 µM
same,TGI,[14],> 50 µM
same,GI50,[15],19.1 µM
same,TGI,[15],> 50 µM
same,GI50,[16],9.4 µM
same,TGI,[16],17.9 µM
same,GI50,[17],14.3 µM
same,TGI,[17],35.5 µM
same,GI50,[18],> 50 µM
same,TGI,[18],> 50 µM
same,GI50,[55],15 µM
same,TGI,[55],39.2 µM
same,GI50,[56],16.9 µM
same,TGI,[56],> 50 µM
same,GI50,[19],19.1 µM
same,TGI,[19],> 50 µM
same,GI50,[20],18.4 µM
same,TGI,[20],> 50 µM
same,GI50,[22],35.4 µM
same,TGI,[22],> 50 µM
same,GI50,[23],9.96 µM
same,TGI,[23],39.9 µM
same,GI50,[24],9.33 µM
same,TGI,[24],21.8 µM
same,GI50,[25],> 50 µM
same,TGI,[25],> 50 µM
same,GI50,[26],9.24 µM
same,TGI,[26],23.9 µM
same,GI50,[27],40.9 µM
same,TGI,[27],> 50 µM
same,GI50,[28],10.1 µM
same,TGI,[28],24.9 µM
same,GI50,[57],31.7 µM
same,TGI,[57],> 50 µM
same,GI50,[29],17.1 µM
same,TGI,[29],> 50 µM
same,GI50,[30],6.85 µM
same,TGI,[30],18.2 µM
same,GI50,[31],16.1 µM
same,TGI,[31],40 µM
same,GI50,[32],19 µM
same,TGI,[32],40.5 µM
same,GI50,[34],9.3 µM
same,TGI,[34],32.6 µM
same,GI50,[50],14.5 µM
same,TGI,[50],29.3 µM
same,GI50,[35],6.1 µM
same,TGI,[35],13 µM
same,GI50,[36],38.7 µM
same,TGI,[36],> 50 µM
same,GI50,[37],15.4 µM
same,TGI,[37],43.4 µM
same,GI50,[38],> 50 µM
same,TGI,[38],> 50 µM
same,GI50,[39],9.44 µM
same,TGI,[39],22 µM
same,GI50,[40],10 µM
same,TGI,[40],46.6 µM
same,GI50,[41],15.5 µM
same,TGI,[41],> 50 µM
same,GI50,[42],11.5 µM
same,TGI,[42],26.7 µM
same,GI50,[43],25.1 µM
same,TGI,[43],> 50 µM
same,GI50,[58],11.1 µM
same,TGI,[58],22.8 µM
same,GI50,[44],12.6 µM
same,TGI,[44],36.8 µM
same,GI50,[45],> 50 µM
same,TGI,[45],> 50 µM
same,GI50,[46],8.75 µM
same,TGI,[46],20.2 µM
